How the values were obtained:
Format in all cases: in vivo
Conditions in all cases: treatment dosage 320 g/ha
bulrush [1] = experiment: Test Example 1: weedkilling efficacy, preemergent weed treatment in the submerged state; B: bulrush
Outline: (§1)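 Pots of alluvial soil were flooded to a 4 cm depth. Mixed weed seeds were sown and 2.5 leaf-stage rice seedlings transplanted. On sowing day, water-diluted emulsion was applied to the water surface (dose in g/ha). After 3 weeks at 25–30 °C, effects were rated.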

bulrush [2] = experiment: Test Example 2: weedkilling efficacy, growth period weed treatment in the submerged state; B: bulrush
Outline: (§2)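 Weeds treated at the 1-2 leaf stage by application of diluted emulsion onto floodwater (4 cm depth, alluvial soil) at specified g/ha. Grown in greenhouse at 25 to 30° C; herbicidal effect rated three weeks after treatment.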

oval-leafed pondweed [3] = experiment: Test Example 1: weedkilling efficacy, preemergent weed treatment in the submerged state; C: oval-leafed pondweed
Outline: as §1

barnyard grass [4] = experiment: Test Example 4: weedkilling efficacy by foliar treatment; F: barnyard grass
Outline: (§3)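 Seeds are spot-sown into sterilized diluvial soil and covered with about 1.5 cm of soil. After 14 days' greenhouse growth at 25 to 30° C, plants are sprayed on stems and leaves with diluted emulsion at the stated g/ha rate, then scored at 3 weeks.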

common wind-grass [5] = experiment: Test Example 4: weedkilling efficacy by foliar treatment; J: common wind-grass
Outline: as §3

crabgrass [6] = experiment: Test Example 3: weedkilling efficacy through soil treatment; D: crabgrass
Outline: (§4)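 Crop and weed responses were judged three weeks after a uniform surface spray of the water-diluted emulsion at the given g/ha rate. Seeds sat beneath about 1.5 cm of sterilized diluvial soil, and boxes stood in a greenhouse at 25 to 30° C.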

transplanted rice = experiment: Test Example 1: preemergent weed treatment in the submerged state, effect on crop; a: transplanted rice
Outline: as §1

Indian mallow [7] = experiment: Test Example 4: weedkilling efficacy by foliar treatment; K: Indian mallow
Outline: as §3

barnyard grass [8] = experiment: Test Example 1: weedkilling efficacy, preemergent weed treatment in the submerged state; A: barnyard grass
Outline: as §1

Italian ryegrass [9] = experiment: Test Example 4: weedkilling efficacy by foliar treatment; I: Italian ryegrass
Outline: as §3

corn [10] = experiment: Test Example 4: foliar treatment, effect on crop; c: corn
Outline: as §3

chickweed [11] = experiment: Test Example 4: weedkilling efficacy by foliar treatment; N: chickweed
Outline: as §3

green foxtail [12] = experiment: Test Example 3: weedkilling efficacy through soil treatment; E: green foxtail
Outline: as §4

barnyard grass [13] = experiment: Test Example 3: weedkilling efficacy through soil treatment; F: barnyard grass
Outline: as §4

Italian ryegrass [14] = experiment: Test Example 3: weedkilling efficacy through soil treatment; I: Italian ryegrass
Outline: as §4

beet [15] = experiment: Test Example 3: soil treatment, effect on crop; f: beet
Outline: as §4

rapeseed [16] = experiment: Test Example 3: soil treatment, effect on crop; g: rapeseed
Outline: as §4

fig-leafed goosefoot [17] = experiment: Test Example 3: weedkilling efficacy through soil treatment; M: fig-leafed goosefoot
Outline: as §4

birds-eye speedwell = experiment: Test Example 3: weedkilling efficacy through soil treatment; p: birds-eye speedwell
Outline: as §4

catchweed [18] = experiment: Test Example 4: weedkilling efficacy by foliar treatment; O: catchweed
Outline: as §3

Indian mallow [19] = experiment: Test Example 3: weedkilling efficacy through soil treatment; K: Indian mallow
Outline: as §4

barnyard grass [20] = experiment: Test Example 2: weedkilling efficacy, growth period weed treatment in the submerged state; A: barnyard grass
Outline: as §2

black-grass [21] = experiment: Test Example 3: weedkilling efficacy through soil treatment; H: black-grass
Outline: as §4

catchweed [22] = experiment: Test Example 3: weedkilling efficacy through soil treatment; O: catchweed
Outline: as §4

wheat [23] = experiment: Test Example 3: soil treatment, effect on crop; e: wheat
Outline: as §4

wild oat [24] = experiment: Test Example 4: weedkilling efficacy by foliar treatment; G: wild oat
Outline: as §3

common wind-grass [25] = experiment: Test Example 3: weedkilling efficacy through soil treatment; J: common wind-grass
Outline: as §4

soybean [26] = experiment: Test Example 3: soil treatment, effect on crop; d: soybean
Outline: as §4

chickweed [27] = experiment: Test Example 3: weedkilling efficacy through soil treatment; N: chickweed
Outline: as §4

wheat [28] = experiment: Test Example 4: foliar treatment, effect on crop; e: wheat
Outline: as §3

wild oat [29] = experiment: Test Example 3: weedkilling efficacy through soil treatment; G: wild oat
Outline: as §4

rapeseed [30] = experiment: Test Example 4: foliar treatment, effect on crop; g: rapeseed
Outline: as §3

directly sown rice [31] = experiment: Test Example 4: foliar treatment, effect on crop; b: directly sown rice
Outline: as §3

directly sown rice [32] = experiment: Test Example 3: soil treatment, effect on crop; b: directly sown rice
Outline: as §4

black-grass [33] = experiment: Test Example 4: weedkilling efficacy by foliar treatment; H: black-grass
Outline: as §3

redroot pigweed [34] = experiment: Test Example 3: weedkilling efficacy through soil treatment; L: redroot pigweed
Outline: as §4

crabgrass [35] = experiment: Test Example 4: weedkilling efficacy by foliar treatment; D: crabgrass
Outline: as §3

corn [36] = experiment: Test Example 3: soil treatment, effect on crop; c: corn
Outline: as §4

soybean [37] = experiment: Test Example 4: foliar treatment, effect on crop; d: soybean
Outline: as §3

oval-leafed pondweed [38] = experiment: Test Example 2: weedkilling efficacy, growth period weed treatment in the submerged state; C: oval-leafed pondweed
Outline: as §2

fig-leafed goosefoot [39] = experiment: Test Example 4: weedkilling efficacy by foliar treatment; M: fig-leafed goosefoot
Outline: as §3

green foxtail [40] = experiment: Test Example 4: weedkilling efficacy by foliar treatment; E: green foxtail
Outline: as §3

beet [41] = experiment: Test Example 4: foliar treatment, effect on crop; f: beet
Outline: as §3

redroot pigweed [42] = experiment: Test Example 4: weedkilling efficacy by foliar treatment; L: redroot pigweed
Outline: as §3

CC1=C(c2ccccc2)C(=O)N(C(C)(C)C(=O)Nc2cc(C)cc(Cl)n2)CO1 [B-2-43]
B (bulrush) weedkilling efficacy grade (bulrush [1]): 5 (weed kill ratio 90% or more, (practically complete withering))
B (bulrush) weedkilling efficacy grade (bulrush [2]): 5 (weed kill ratio 90% or more, (practically complete withering))
C (oval-leafed pondweed) weedkilling efficacy grade (oval-leafed pondweed [3]): 5 (weed kill ratio 90% or more, (practically complete withering))
F (barnyard grass) weedkilling efficacy grade (barnyard grass [4]): 5 (weed kill ratio 90% or more, (practically complete withering))
J (common wind-grass) weedkilling efficacy grade (common wind-grass [5]): 5 (weed kill ratio 90% or more, (practically complete withering))
D (crabgrass) weedkilling efficacy grade (crabgrass [6]): 5 (weed kill ratio 90% or more, (practically complete withering))
a (transplanted rice) effect on crop grade (transplanted rice): 3 (weed kill ratio 40% or more, less than 70%)
K (Indian mallow) weedkilling efficacy grade (Indian mallow [7]): 3 (weed kill ratio 40% or more, less than 70%)
A (barnyard grass) weedkilling efficacy grade (barnyard grass [8]): 5 (weed kill ratio 90% or more, (practically complete withering))
I (Italian ryegrass) weedkilling efficacy grade (Italian ryegrass [9]): 5 (weed kill ratio 90% or more, (practically complete withering))
c (corn) effect on crop grade (corn [10]): 3 (weed kill ratio 40% or more, less than 70%)
N (chickweed) weedkilling efficacy grade (chickweed [11]): 3 (weed kill ratio 40% or more, less than 70%)
E (green foxtail) weedkilling efficacy grade (green foxtail [12]): 4 (weed kill ratio 70% or more, less than 90%)
F (barnyard grass) weedkilling efficacy grade (barnyard grass [13]): 5 (weed kill ratio 90% or more, (practically complete withering))
I (Italian ryegrass) weedkilling efficacy grade (Italian ryegrass [14]): 5 (weed kill ratio 90% or more, (practically complete withering))
f (beet) effect on crop grade (beet [15]): 4 (weed kill ratio 70% or more, less than 90%)
g (rapeseed) effect on crop grade (rapeseed [16]): 4 (weed kill ratio 70% or more, less than 90%)
M (fig-leafed goosefoot) weedkilling efficacy grade (fig-leafed goosefoot [17]): 3 (weed kill ratio 40% or more, less than 70%)
P (birds-eye speedwell) weedkilling efficacy grade (birds-eye speedwell): 5 (weed kill ratio 90% or more, (practically complete withering))
O (catchweed) weedkilling efficacy grade (catchweed [18]): 1 (weed kill ratio 5% or more, less than 20%)
K (Indian mallow) weedkilling efficacy grade (Indian mallow [19]): 0 (weed kill ratio 5% or less (practically no effect))
A (barnyard grass) weedkilling efficacy grade (barnyard grass [20]): 5 (weed kill ratio 90% or more, (practically complete withering))
H (black-grass) weedkilling efficacy grade (black-grass [21]): 5 (weed kill ratio 90% or more, (practically complete withering))
O (catchweed) weedkilling efficacy grade (catchweed [22]): 4 (weed kill ratio 70% or more, less than 90%)
e (wheat) effect on crop grade (wheat [23]): 1 (weed kill ratio 5% or more, less than 20%)
G (wild oat) weedkilling efficacy grade (wild oat [24]): 3 (weed kill ratio 40% or more, less than 70%)
J (common wind-grass) weedkilling efficacy grade (common wind-grass [25]): 5 (weed kill ratio 90% or more, (practically complete withering))
d (soybean) effect on crop grade (soybean [26]): 2 (weed kill ratio 20% or more, less than 40%)
N (chickweed) weedkilling efficacy grade (chickweed [27]): 4 (weed kill ratio 70% or more, less than 90%)
e (wheat) effect on crop grade (wheat [28]): 0 (weed kill ratio 5% or less (practically no effect))
G (wild oat) weedkilling efficacy grade (wild oat [29]): 5 (weed kill ratio 90% or more, (practically complete withering))
g (rapeseed) effect on crop grade (rapeseed [30]): 4 (weed kill ratio 70% or more, less than 90%)
b (directly sown rice) effect on crop grade (directly sown rice [31]): 5 (weed kill ratio 90% or more, (practically complete withering))
b (directly sown rice) effect on crop grade (directly sown rice [32]): 3 (weed kill ratio 40% or more, less than 70%)
H (black-grass) weedkilling efficacy grade (black-grass [33]): 5 (weed kill ratio 90% or more, (practically complete withering))
L (redroot pigweed) weedkilling efficacy grade (redroot pigweed [34]): 3 (weed kill ratio 40% or more, less than 70%)
D (crabgrass) weedkilling efficacy grade (crabgrass [35]): 5 (weed kill ratio 90% or more, (practically complete withering))
c (corn) effect on crop grade (corn [36]): 0 (weed kill ratio 5% or less (practically no effect))
d (soybean) effect on crop grade (soybean [37]): 4 (weed kill ratio 70% or more, less than 90%)
C (oval-leafed pondweed) weedkilling efficacy grade (oval-leafed pondweed [38]): 5 (weed kill ratio 90% or more, (practically complete withering))
M (fig-leafed goosefoot) weedkilling efficacy grade (fig-leafed goosefoot [39]): 4 (weed kill ratio 70% or more, less than 90%)
E (green foxtail) weedkilling efficacy grade (green foxtail [40]): 5 (weed kill ratio 90% or more, (practically complete withering))
f (beet) effect on crop grade (beet [41]): 3 (weed kill ratio 40% or more, less than 70%)
L (redroot pigweed) weedkilling efficacy grade (redroot pigweed [42]): 3 (weed kill ratio 40% or more, less than 70%)

From patent US9738634B2, “Heterocyclic amide compound and herbicide” (SYNGENTA PARTICIPATIONS AG, priority 2013, dated 2017)
